Data: US12479905B2, “Peptide used for immunotherapeutics” (3H BIO. CO., LTD., priority 2020, dated 2025)
Non-standard residues stand in square brackets, D forms with d. No end group written: not given here. Cha = N[C@@H](CC1CCCCC1)C(=O)O; Ahx = NCCCCCC(=O)O

Experiments:
[1] = Weight measurement of high-fat-diet mice after in vivo administration of peptide composition (Experimental Example 7); settings: C57BL/6J male, high-fat diet after 10 weeks; intramuscular administration at 8, 10, 12 and 14 weeks of age; 50 μg peptide/100 μL with PHAD and Alhydrogel
From the text: In order to test the effect of the composition for in vivo administration prepared in Experimental Example 1.5, C57BL/6, Balbc and/or ICR species were used as experimental mice (purchased from Central Lab Animal Inc.). Although there were some differences in species, the mice purchased were 7-week-old on average and they were acclimatized for one week, and were used for experiments when they were 8 weeks of age. Experimental mice were reared under the conditions of a constant temperature and humidity environment within the temperature range of 23±1° C., relative humidity of 50±5%, and an environment controlled as 12-hour light room/12 hour dark room. Drinking water and food were provided ad libitum. In the case of a normal diet (purchased from Central Lab Animal Inc.), it consisted of 20% protein, 70% carbohydrate, and 10% fat based on total calories, whereas in the case of an obesity-inducing diet (purchased from Research diets), it consisted of a high-fat diet including 20% protein, 20% carbohydrate, and 60% fat based on total calories. Experimental mice were divided into each group to have different dietary conditions and composition administration conditions, and experiments were performed with the number of individuals that could be statistically processed for each experimental group. Detailed conditions are as disclosed in each specific experimental example.
For a test subject prepared in Experimental Example 1.6, different compositions were administered for each experimental group. All administration compositions were administered by an intramuscular injection method, and after disinfecting muscles of both thighs of each mouse with an alcohol swab, 50 μL each with a total amount of 100 μL was injected.
From the time of arrival to the end of the experiment for each experimental group of mice, the average was calculated after measuring three times per week to obtain the average weight value for each week. After completion of the experiment, each mouse was anesthetized, organs were dissected, and weights were measured, and the average was obtained for each experimental group.
According to Experimental Example 1.7, the composition for in vivo administration was administered to the test subject. In particular, the administration cycle was as follows: 8 weeks, 10 weeks, 12 weeks, and 14 weeks of age.
(1) According to Experimental Example 1.8, the weight of a test subject for each experimental group was measured.

[2] = tested on: RNVPPIFNDVYWIAF (SEQ ID NO: 6); experiment: Confirmation of antibody titer in serum by ELISA using the target antigen (Experimental Example 7); type: in vivo, C57BL/6J, male mice; settings: serum at 11, 16 and 19 weeks of age; ELISA antigen SEQ ID NO: 6 only; administration at 8, 10, 12 and 14 weeks
From the text: In order to determine whether the composition for in vivo administration administered in Experimental Example 1.7 induced an antibody against the B-cell epitope, a method for confirming the antibody titer using the target antigen is as follows. In particular, the target antigen is RNVPPIFNDVYWIAF (SEQ ID NO: 6) or ApoB100. The time to confirm the antibody titer may vary as needed, and the time was specifically described for each experimental example.
1-1) For each injection of a composition for in vivo administration into a test subject, collect about 200 μL of blood from the subject's tail vein one week after the injection.
1-2) After placing the collected blood at 4° C. for one hour, perform centrifugation of the blood sample at 14,000 rpm for 10 minutes to separate the serum, which is the supernatant.
1-3) Dilute the target antigen to a concentration of 50 μg/100 μL in coating buffer (0.05 M, bicarbonate, pH 9.6) and add the antigen to a 96-well plate in an amount of 50 μg per well, and allow them to react overnight at 4° C. so that the peptide is coated on the wall of the well.
1-4) Wash the target antigen-coated plate three times using 300 μL of phosphate buffered saline (PBS)-T (0.05% with Tween-20) per well.
2-1) Add 300 μL of a 0.5% casein blocking solution per well in the plate, and allow to react overnight at 4° C.
2-2) Wash the plate three times with 300 μL of PBS-T per well.
3-1) As the primary antibody reaction, dilute the separated serum to an appropriate concentration, add it in an amount of 100 μL per well, and allow to react at 37° C. for one hour. In particular, after the initial injection, subject the serum to serial dilution by diluting the same to 1/20 to 1/1,000 in the experiment, and 1/500 to 1/10,000 depending on the subject during the experiment after the second to third injections. As a positive control, use a monoclonal antibody against the peptide of SEQ ID NO: 41 after purification.
3-2) After the reaction of 3-1, wash the plate three times with 300 μL of PBS-T per well.
4-1) As a secondary antibody reaction, add 100 μL of horseradish peroxidase (HRP) conjugated to anti-mouse IgG antibody recognizing a mouse antibody per well, and allow them to react at 37° C. for one hour.
4-2) After the reaction of 4-1), wash the plate three times with 300 μL of PBS-T per well.
5-1) Add 100 μL of a o-phenylenediamine dihydrochloride (OPD) solution per well, and allow to react at 37° C. for 10 minutes, and measure the absorbance at OD 450 nm (Synergy HT microplate reader, BioTek).
Obtain the antibody titer in serum by converting the extinction coefficient, which is measured based on 1 mg/mL concentration of the monoclonal antibody against the target antibody as a positive control.
(2) According to Experimental Example 1.9, the antibody titers observed in a test subject for each experimental group at 11 weeks, 16 weeks, and 19 weeks were confirmed. In particular, the target antigen was determined using RNVPPIFNDVYWIAF (SEQ ID NO: 6).

Substance	weight loss effect compared to the control group (Obese) [1]	antibody titer to RNVPPIFNDVYWIAF (SEQ ID NO: 6) [2]
GSHHHHHHGSDDDDKZaK(Cha)VAAWTLKAAaZRNVPPIFNDVYWIAF (GSHHHHHHGSDDDDK[Ahx][dA]K[Cha]VAAWTLKAA[dA][Ahx]RNVPPIFNDVYWIAF) [P3]	weight loss effect appeared	observed
KTTKQSFDLSVKAQYKKNKHZaK(Cha)VAAWTLKAAaZCRFRGLISLSQVYLS (KTTKQSFDLSVKAQYKKNKH[Ahx][dA]K[Cha]VAAWTLKAA[dA][Ahx]CRFRGLISLSQVYLS) [P4]	there was a weight loss effect	
RNVPPIFNDVYWIAFCRFRGLISLSQVYLSZaK(Cha)VAAWTLKAAaZ (RNVPPIFNDVYWIAFCRFRGLISLSQVYLS[Ahx][dA]K[Cha]VAAWTLKAA[dA][Ahx]) [P5]	a weight loss effect is observed	
RNVPPIFNDVYWIAFK(Cha)VAAWTLKAA (RNVPPIFNDVYWIAFK[Cha]VAAWTLKAA) [P8]	weight loss effect was shown	shown
RNVPPIFNDVYWIAFK(Cha)VAAWTLKAAHHHHHH (RNVPPIFNDVYWIAFK[Cha]VAAWTLKAAHHHHHH) [P9]	weight loss effect appeared	observed
RNVPPIFNDVYWIAFZaK(Cha)VAAWTLKAAaZ (RNVPPIFNDVYWIAF[Ahx][dA]K[Cha]VAAWTLKAA[dA][Ahx]) [P7]	weight loss effect appeared	observed
RNVPPIFNDVYWIAFZaK(Cha)VAAWTLKAAaZCRFRGLISLSQVYLS (RNVPPIFNDVYWIAF[Ahx][dA]K[Cha]VAAWTLKAA[dA][Ahx]CRFRGLISLSQVYLS) [P1]	weight loss effect	there were individuals showing a large antibody titer depending on the individual, and there were also individuals which showed no antibody titer
RNVPPIFNDVYWIAFZaK(Cha)VAAWTLKAAaZGSHHHHHHGSDDDDK (RNVPPIFNDVYWIAF[Ahx][dA]K[Cha]VAAWTLKAA[dA][Ahx]GSHHHHHHGSDDDDK) [P2]	weight loss effect appeared	observed
